Peptide text beside a SMILES is read from it. * marks the point of attachment. Cbz = O=C(OCc1ccccc1)*; CH2F = FC*
Experiments:
RhoA/Rho-kinase pathway = assay: G-LISA RhoA/Rho-kinase pathway activation assay in HLEC co-incubated with P. falciparum pRBC; format: cell-based, human; conditions: Fasudil 30 μM, 24 hours pRBC-contact co-incubation with HLEC, compared to pRBC alone, p<0.05 (FIG. 2)
Procedure: Activity of RhoA and its downstream effector Rho-kinase was assessed using G-LISA™ RhoA Activation Assay Biochem Kit purchased from Cytoskeleton (Denver, Colo.). The principle of the assay is to determine the amount of active GTP-bound RhoA extracted from cultured cells with a Rho-GTP-binding protein coated 96-well plate and final detection with immunoreagents. Briefly, HLEC were cultured in 6-well plates until 50-70% confluence as recommended by the manufacturer and exposed to P. falciparum infected erythrocytes or non infected erythrocytes at 1% of hematocrit and 50% of parasitemia. When used, Fasudil was added concomitantly with parasites at 30 μM. After 24 hours of incubation cells were washed and ice-cold lysed in phosphate buffer saline containing protease inhibitors. Cell lysates were then clarified by centrifugation at 4° C. 10,000 rpm for 2 min before measurement of protein concentrations. Cell extracts were equalized with lysis buffer to give identical protein concentrations before incubation in Rho-GTP affinity plate for 30 min at 4° C. […]
Briefly, RhoA activity in HLEC co-incubated during 24 hours with P. falciparum infected red blood cells (pRBC) or non infected red blood cells (RBC) was measured using the G-LISA™ RhoA activation kit (Cytoskeleton, Denver Colo.) as described in the Materials and Methods section.

[1] = system: P. falciparum induced endothelial permeability of HLEC monolayer; assay: Endothelial barrier integrity assay (Evans Blue diffusion through HLEC monolayer); format: cell-based, human
Procedure: In order to measure the effect of treatments on pre-exposed pRBCs endothelial cells, we developed a method based on Evans Blue diffusion through endothelial monolayer. Briefly HLEC were raised on Transwell Permeable supports (polyester membrane, 3 μm pore size, 6.5 mm diameter, Corning Incorporated Life Sciences) until confluence in M199 medium. Mature forms of 3D7 P. falciparum clone were then harvested from culture and adjusted at 1% of hematocrit and 50% of parasitemia before 4 hours co-incubation at 37° C. 5% CO2. After PRBC exposure, endothelial cell monolayers were treated 20 hours with Fasudil (1 μM or 30 μM). […] Lower compartments were finally collected for optical density analysis at 630 nm of diffused Evans Blue, using a standard microtiter plate reader (Bio-Tek™ EL311SX, Instruments Inc).
Briefly, P. falciparum cytoadherence effect on endothelial barrier function was assessed by culturing HLEC in Transwell inserts until confluence before exposing them 4 hours to mature forms of pRBC as above. The quantity of Evans Blue collected in lower compartments was markedly higher in pRBC/HLEC co-incubation conditions than in control RBC/HLEC (p<0.01) or non-exposed endothelial cell conditions (p<0.01). […]
Briefly, HLEC were cultured in Transwell inserts until confluence. […] Endothelial barrier integrity was assessed as described above.

[2] = system: P. falciparum-induced apoptosis of human lung endothelial cells (HLEC); assay: APOPercentage quantitative apoptosis assay, pRBC/HLEC co-incubation; format: cell-based; conditions: 24 hours pRBC exposure, purple dye pixel number (FIG. 4)
Procedure: Endothelial apoptosis was quantitatively assessed using APOPercentage™ dye purchased from Biocolor Ltd. (Belfast, Northern Ireland). The assay uses a purple-red colour dye that is selectively incorporated into apoptotic but not necrotic cells. Unilateral uptake of the dye occurs through phosphatidylserines of the outer membrane of cells that undergo apoptosis. Endothelial cells were cultured in 6-well plates until confluence before exposure to P. falciparum infected erythrocytes during 24 hours. HLEC were incubated for 1 hour with the Apopercentage dye (1/20) before co-incubation time is reached and delicately washed 3 times with PBS. Apoptosis was then quantified by Analytical Digital Photomicroscopy (ADP): for each experiment 4 representative fields of each well of cell cultures were photographed using inverted phase contrast microscope coupled with a digital camera. Images were then transferred to a computer and the level of apoptosis was expressed as a red pixel number counted by Adobe® Photoshop®.
Briefly, APOPercentage™ was used as a mean to quantify induced apoptosis and the effect of Fasudil on cell survival during pRBC/HLEC co-incubations by quantitatively assessing the […] of purple red dye by apoptotic HLEC using Analytical Digital Photomicroscopy (ADP). […]

[3] = system: NF-kappaB nuclear translocation in HLEC; assay: NF-kappaB P65 nuclear translocation (endothelial activation) in pRBC-exposed HLEC; format: cell-based, human; conditions: Fasudil 30 μM added concomitantly with pRBC, 6 hours, P<0.005 (FIG. 8)
Procedure: Briefly, HLEC were cultured in 8-chambers Labtek plates and exposed to pRBC during 6 hours at 1% of hematocrit and 50% of parasitemia. Rho-kinase inhibitor Fasudil was added concomitantly with pRBC at 30 μM. TNFβ at 20 ng/ml was used as a positive control of NF-kappaB nuclear translocation. Cells were then fixed and permeabilized for immunostaining with primary anti-NF-kappaB P65 subunit antibody and secondary FITC-anti-mouse IgG antibody. Nuclei were stained with diamidino-phenylindole (DAPI). After immunostaining of NF-kappaB P65 subunit, results were analysed by fluorescence microscopy and the number of activated HLEC (cells with complete but not partial migration nuclear P65 staining) per each condition (n=4) was counted (FIG. 8).

Row | Compound | activated RhoA concentration ([Rho-GTP], OD 490 nm) (RhoA/Rho-kinase pathway) | quantity of Evans Blue marker in lower compartment (OD 630 nm) ([1]; HLEC exposed 4 hours to pRBC, then 30 μM Fasudil for 20 hours, vs HLEC and pRBC, p<0.01 (FIG. 6)) | decrease in apoptosis of pRBC-exposed HLEC compared to non treated cells ([2]; 1 μM Fasudil) [fold] | decrease in apoptosis of pRBC-exposed HLEC compared to non treated cells ([2]; 30 μM) [fold] | P. falciparum-induced endothelial activation (% cells with nuclear NF-kappaB P65) [3] | quantity of Evans Blue in the lower compartment (OD 630 nm) ([1]; pRBC/HLEC co-incubation in the presence of z-vad 10 μM or 100 μM (FIG. 5))
1 | O=S(=O)(c1cccc2cnccc12)N1CCCNCC1 [Fasudil] | significant decrease | significantly lower | 1.4 | 4.1 | significantly reduces | 
2 | COC(=O)C[C@H](NC(=O)[C@H](C)NC(=O)[C@@H](NC(=O)OCc1ccccc1)C(C)C)C(=O)CF [z-vad, Z-VAD-fmk] (Cbz-Val-Ala-Asp(OMe)-CH2F) |  |  |  |  |  | significantly reduced

Reference: patent US20090203678A1, “PHARMACEUTICAL COMPOSITIONS FOR THE TREATMENT OF PROTOZOAN PARASITIC DISEASES” (priority 2006, published 2009)
